The values that follow come from ChEMBL document CHEMBL5291721, “A preclinical secondary pharmacology resource illuminates target-adverse drug reaction associations of marketed drugs” (Nat Commun, 2023).

Experiment [1] addresses Histamine H1 receptor (Homo sapiens, UniProt P35367).
Experiment [2] concerns the target 5-hydroxytryptamine receptor 2A (Homo sapiens, UniProt P28223). The format is functional, cell-based.
Experiment [3] concerns the target Gamma-aminobutyric acid receptor subunit alpha-1/alpha-2/beta-2/gamma-2 (Homo sapiens, UniProt P14867+P18507+P47869+P47870). The format is protein-complex assay.
The target in experiment [4] is T1, Glucocorticoid receptor (Homo sapiens, UniProt P04150).
T1 sequence (P04150 whole entry): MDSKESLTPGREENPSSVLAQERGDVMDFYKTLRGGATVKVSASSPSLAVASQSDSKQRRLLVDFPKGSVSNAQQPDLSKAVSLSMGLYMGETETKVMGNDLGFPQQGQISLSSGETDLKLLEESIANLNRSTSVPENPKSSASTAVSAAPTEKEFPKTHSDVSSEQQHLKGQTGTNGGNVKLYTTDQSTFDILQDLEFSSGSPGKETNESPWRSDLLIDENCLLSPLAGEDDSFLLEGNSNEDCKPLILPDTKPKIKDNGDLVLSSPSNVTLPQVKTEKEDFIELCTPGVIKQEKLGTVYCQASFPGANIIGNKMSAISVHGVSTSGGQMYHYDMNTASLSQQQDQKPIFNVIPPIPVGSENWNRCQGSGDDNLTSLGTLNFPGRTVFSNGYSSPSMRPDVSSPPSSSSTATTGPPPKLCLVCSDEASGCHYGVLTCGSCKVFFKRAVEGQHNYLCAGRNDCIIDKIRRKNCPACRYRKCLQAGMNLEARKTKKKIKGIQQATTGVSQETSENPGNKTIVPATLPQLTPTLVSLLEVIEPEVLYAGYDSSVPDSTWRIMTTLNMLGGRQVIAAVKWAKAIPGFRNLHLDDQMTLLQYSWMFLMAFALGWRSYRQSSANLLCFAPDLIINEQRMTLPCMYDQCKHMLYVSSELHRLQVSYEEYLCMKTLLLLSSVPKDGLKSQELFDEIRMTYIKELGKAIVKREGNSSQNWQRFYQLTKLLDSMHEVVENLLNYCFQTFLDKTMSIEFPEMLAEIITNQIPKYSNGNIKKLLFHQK

Experiment [5] concerns the target Melanocortin receptor 4 (Homo sapiens, UniProt P32245).
The target of experiment [6] is T2, Alpha-1A adrenergic receptor (Homo sapiens, UniProt P35348).
T2 sequence (P35348 whole entry): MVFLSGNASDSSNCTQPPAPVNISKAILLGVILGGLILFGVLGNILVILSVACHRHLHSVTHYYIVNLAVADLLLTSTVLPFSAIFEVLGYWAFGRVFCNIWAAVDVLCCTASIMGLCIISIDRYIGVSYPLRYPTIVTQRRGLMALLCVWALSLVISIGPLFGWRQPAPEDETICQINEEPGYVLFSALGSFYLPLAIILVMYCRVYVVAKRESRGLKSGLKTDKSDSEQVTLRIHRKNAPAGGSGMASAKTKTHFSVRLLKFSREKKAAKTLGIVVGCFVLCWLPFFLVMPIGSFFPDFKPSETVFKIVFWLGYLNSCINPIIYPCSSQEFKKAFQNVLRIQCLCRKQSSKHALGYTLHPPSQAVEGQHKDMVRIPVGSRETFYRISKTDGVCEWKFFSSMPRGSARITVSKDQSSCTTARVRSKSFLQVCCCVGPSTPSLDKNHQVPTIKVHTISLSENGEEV
Note: assay procedure not described here.

Gamma-aminobutyric acid receptor subunit alpha-1/alpha-2/beta-2/gamma-2, sequence (P14867 whole entry): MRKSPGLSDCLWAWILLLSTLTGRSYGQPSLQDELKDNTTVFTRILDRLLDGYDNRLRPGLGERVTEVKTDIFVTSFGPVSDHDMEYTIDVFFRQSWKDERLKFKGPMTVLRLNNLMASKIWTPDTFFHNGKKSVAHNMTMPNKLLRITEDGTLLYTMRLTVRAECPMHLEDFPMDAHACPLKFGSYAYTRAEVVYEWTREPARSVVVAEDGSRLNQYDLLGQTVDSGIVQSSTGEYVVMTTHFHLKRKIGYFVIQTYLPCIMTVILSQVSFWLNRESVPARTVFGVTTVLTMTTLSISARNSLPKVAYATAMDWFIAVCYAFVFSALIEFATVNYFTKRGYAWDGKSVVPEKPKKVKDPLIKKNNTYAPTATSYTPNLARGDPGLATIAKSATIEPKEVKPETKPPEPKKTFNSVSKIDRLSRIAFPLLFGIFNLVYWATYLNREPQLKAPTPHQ
Gamma-aminobutyric acid receptor subunit alpha-1/alpha-2/beta-2/gamma-2, sequence (P47870 whole entry): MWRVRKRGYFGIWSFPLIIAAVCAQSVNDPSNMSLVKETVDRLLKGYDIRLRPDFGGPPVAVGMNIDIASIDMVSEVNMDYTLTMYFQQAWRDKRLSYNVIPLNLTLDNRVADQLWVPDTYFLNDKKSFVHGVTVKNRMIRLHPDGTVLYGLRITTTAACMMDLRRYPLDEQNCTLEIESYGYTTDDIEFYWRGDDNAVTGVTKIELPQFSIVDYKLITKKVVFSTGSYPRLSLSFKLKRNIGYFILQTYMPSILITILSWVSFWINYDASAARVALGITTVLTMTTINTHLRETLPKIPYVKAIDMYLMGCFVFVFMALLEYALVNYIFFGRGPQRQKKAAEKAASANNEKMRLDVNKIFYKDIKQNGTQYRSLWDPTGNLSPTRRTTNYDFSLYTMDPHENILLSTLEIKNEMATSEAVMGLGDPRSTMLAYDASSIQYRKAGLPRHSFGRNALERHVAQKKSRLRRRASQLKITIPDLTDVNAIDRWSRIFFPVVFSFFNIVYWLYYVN
Gamma-aminobutyric acid receptor subunit alpha-1/alpha-2/beta-2/gamma-2, sequence (P18507 whole entry): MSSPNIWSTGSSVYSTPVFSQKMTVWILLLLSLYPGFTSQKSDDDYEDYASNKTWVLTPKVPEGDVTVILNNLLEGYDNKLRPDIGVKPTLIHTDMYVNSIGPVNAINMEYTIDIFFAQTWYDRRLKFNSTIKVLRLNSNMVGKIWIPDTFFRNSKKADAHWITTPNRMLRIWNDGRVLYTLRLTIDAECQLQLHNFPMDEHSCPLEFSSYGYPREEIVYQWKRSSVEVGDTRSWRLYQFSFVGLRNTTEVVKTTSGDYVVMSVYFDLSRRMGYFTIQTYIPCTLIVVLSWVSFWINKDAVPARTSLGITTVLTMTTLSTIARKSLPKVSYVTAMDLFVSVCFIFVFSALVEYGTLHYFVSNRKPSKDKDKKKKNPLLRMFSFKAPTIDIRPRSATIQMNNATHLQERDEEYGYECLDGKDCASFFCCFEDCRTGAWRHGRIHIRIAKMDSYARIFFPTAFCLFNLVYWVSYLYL
Gamma-aminobutyric acid receptor subunit alpha-1/alpha-2/beta-2/gamma-2, sequence (P47869 whole entry): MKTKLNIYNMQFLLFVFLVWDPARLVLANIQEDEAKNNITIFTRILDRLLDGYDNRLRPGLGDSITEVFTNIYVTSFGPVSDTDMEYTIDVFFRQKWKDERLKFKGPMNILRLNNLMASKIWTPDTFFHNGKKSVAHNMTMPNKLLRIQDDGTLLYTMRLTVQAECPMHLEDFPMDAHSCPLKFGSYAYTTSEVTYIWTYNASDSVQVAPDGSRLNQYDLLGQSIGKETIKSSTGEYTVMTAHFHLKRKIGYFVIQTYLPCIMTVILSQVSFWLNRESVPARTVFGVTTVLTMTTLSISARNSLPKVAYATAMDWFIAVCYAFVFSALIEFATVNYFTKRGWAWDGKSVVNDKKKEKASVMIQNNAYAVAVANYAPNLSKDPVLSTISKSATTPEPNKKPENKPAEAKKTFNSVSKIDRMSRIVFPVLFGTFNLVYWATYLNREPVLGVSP
Melanocortin receptor 4, sequence (P32245 whole entry): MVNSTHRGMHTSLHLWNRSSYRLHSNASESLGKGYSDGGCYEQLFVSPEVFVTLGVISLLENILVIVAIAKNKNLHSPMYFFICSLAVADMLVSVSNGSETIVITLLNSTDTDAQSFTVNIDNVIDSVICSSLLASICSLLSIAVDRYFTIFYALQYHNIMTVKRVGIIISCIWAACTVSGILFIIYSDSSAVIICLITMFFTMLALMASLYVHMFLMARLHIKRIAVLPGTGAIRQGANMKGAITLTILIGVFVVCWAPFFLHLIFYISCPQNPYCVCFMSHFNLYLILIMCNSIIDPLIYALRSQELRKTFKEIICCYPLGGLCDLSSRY
5-hydroxytryptamine receptor 2A, sequence (P28223 whole entry): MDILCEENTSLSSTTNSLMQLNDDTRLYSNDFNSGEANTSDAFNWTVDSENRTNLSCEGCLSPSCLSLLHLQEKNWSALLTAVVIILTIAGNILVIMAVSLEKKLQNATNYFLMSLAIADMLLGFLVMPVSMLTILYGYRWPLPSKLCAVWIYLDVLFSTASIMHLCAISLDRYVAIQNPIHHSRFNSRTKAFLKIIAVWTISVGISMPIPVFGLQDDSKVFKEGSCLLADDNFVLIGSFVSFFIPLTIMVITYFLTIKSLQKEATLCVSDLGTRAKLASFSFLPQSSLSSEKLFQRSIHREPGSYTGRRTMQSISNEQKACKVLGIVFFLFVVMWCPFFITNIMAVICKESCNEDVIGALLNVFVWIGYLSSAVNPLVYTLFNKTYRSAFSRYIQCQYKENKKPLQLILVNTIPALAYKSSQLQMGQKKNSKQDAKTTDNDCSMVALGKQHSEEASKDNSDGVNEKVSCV
Histamine H1 receptor, sequence (P35367 whole entry): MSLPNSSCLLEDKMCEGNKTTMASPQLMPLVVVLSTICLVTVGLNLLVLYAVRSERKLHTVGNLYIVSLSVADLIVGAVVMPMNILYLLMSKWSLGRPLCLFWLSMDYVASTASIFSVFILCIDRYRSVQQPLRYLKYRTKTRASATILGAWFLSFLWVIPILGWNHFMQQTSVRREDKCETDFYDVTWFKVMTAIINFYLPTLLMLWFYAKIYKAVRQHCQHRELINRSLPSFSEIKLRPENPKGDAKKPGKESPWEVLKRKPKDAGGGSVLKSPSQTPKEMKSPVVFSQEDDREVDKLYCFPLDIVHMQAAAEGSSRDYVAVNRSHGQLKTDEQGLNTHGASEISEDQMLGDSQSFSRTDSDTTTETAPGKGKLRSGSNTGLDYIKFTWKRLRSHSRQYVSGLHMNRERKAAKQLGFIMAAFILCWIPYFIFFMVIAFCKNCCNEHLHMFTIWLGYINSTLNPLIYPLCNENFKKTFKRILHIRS

What is called AC50 is the concentration at which the activity in the assay is half-maximal. High values mean weaker potency, low ones greater potency. As to `CCOc1cc([C@@H](CS(C)(=O)=O)N2C(=O)c3cccc(NC(C)=O)c3C2=O)ccc1OC`, the AC50 in experiment [1] and in experiment [2] was greater than 30 µM each time. Turning to `CC(=O)NCCCCCC(=O)O` [ACEXAMIC ACID], in experiment [3], the concentration at half-maximal activity (AC50) was greater than 30 µM. Take `CC(=O)Nc1ccc(CC(=O)O)cc1` [ACTARIT]: the half-maximal activity concentration (AC50) in experiment [1], in experiment [4] and in experiment [2] was greater than 30 µM throughout.

For `C=C(C)CNc1ccc(C(C)C(=O)O)cc1` (configuration not stated) [ALMINOPROFEN], the half-maximal activity concentration (AC50) in experiment [3] was greater than 30 µM. In experiment [3], `C[C@H]1CN(C[C@H](Cc2ccccc2)C(=O)NCC(=O)O)CC[C@@]1(C)c1cccc(O)c1` [ALVIMOPAN] came in with a half-maximal activity concentration (AC50) greater than 30 µM. In experiment [4], `CC(C(=O)O)c1ccc2oc(-c3ccc(Cl)cc3)nc2c1` (configuration not stated) [BENOXAPROFEN] showed a half-maximal activity concentration (AC50) greater than 30 µM. Consider `O=C(O)c1ccccc1` [BENZOIC ACID], for which the concentration at half-maximal activity (AC50) in experiment [3] was greater than 30 µM. For `CC1(C)S[C@@H]2[C@H](NC(=O)C(C(=O)O)c3ccccc3)C(=O)N2[C@H]1C(=O)O` (some centres not stated) [CARBENICILLIN], the AC50 in experiment [1], in experiment [4] and in experiment [2] was greater than 30 µM each time.

With `Cc1nnc(SCC2=C(C(=O)O)N3C(=O)[C@@H](NC(=O)Cn4cnnn4)[C@H]3SC2)s1` [CEFAZOLIN], the AC50 in experiment [1] is greater than 300 µM; in experiment [2], greater than 30 µM. Take `CC=CC1=C(C(=O)O)N2C(=O)[C@@H](NC(=O)[C@H](N)c3ccc(O)cc3)[C@H]2SC1` [CEFPROZIL]: the AC50 in experiment [1], in experiment [4], in experiment [5] and in experiment [2] was greater than 30 µM throughout. Consider `CC(C)(O/N=C(\C(=O)N[C@@H]1C(=O)N2C(C(=O)[O-])=C(C[n+]3ccccc3)CS[C@H]12)c1csc(N)n1)C(=O)O` [CEFTAZIDIME], for which the concentration at half-maximal activity (AC50) in experiment [1] is greater than 300 µM; in experiment [4] it was greater than 30 µM; in experiment [2] it was greater than 30 µM.

As for `CC(C)NC(=N)NC(=N)Nc1ccc(Cl)c(Cl)c1` [CHLORPROGUANIL], the AC50 is greater than 30 µM in experiment [1] and 3.6 µM in experiment [2]. Take `Cc1cc(C2CCCCC2)n(O)c(=O)c1` [CICLOPIROX]: the AC50 in experiment [3] is greater than 30 µM.

In the case of `C[N+](C)(C)CCOP(=O)(O)OP(=O)([O-])OC[C@H]1O[C@@H](n2ccc(N)nc2=O)[C@H](O)[C@@H]1O` [CITICOLINE], the AC50 in experiment [1] and in experiment [2] was greater than 30 µM in each case. In the case of `Clc1ccc(Cn2c(CN3CCCC3)nc3ccccc32)cc1` [CLEMIZOLE], the AC50 in experiment [1] was 0.0034 µM; in experiment [2], 15 µM. Turning to `CCC(=O)O[C@]1(C(=O)CCl)[C@@H](C)C[C@H]2[C@@H]3CCC4=CC(=O)C=C[C@]4(C)[C@@]3(F)[C@@H](O)C[C@@]21C` [CLOBETASOL PROPIONATE], the activity in experiment [4] was half-maximal at 0.0078 µM (AC50). Compound `C[C@H]1O[C@@H](O[C@H]2CC[C@@]3(C)[C@H](CC[C@@H]4[C@@H]3C[C@@H](O)[C@]3(C)[C@@H](C5=CC(=O)OC5)CC[C@]43O)C2)C[C@H](O)[C@@H]1O[C@H]1C[C@H](O)[C@H](O[C@H]2C[C@H](O)[C@H](O[C@@H]3O[C@H](CO)[C@@H](O)[C@H](O)[C@H]3O)[C@@H](C)O2)[C@@H](C)O1` [DESLANOSIDE] had an AC50 in experiment [3] greater than 30 µM. The same measure, in the same setting: then `CC(C(=O)O)c1cccc(Oc2ccccc2)c1` (configuration not stated) [FENOPROFEN], with greater than 30 µM. As to `Cc1onc(-c2c(F)cccc2Cl)c1C(=O)N[C@@H]1C(=O)N2[C@@H]1SC(C)(C)[C@@H]2C(=O)O` [FLOXACILLIN], the AC50 in experiment [1] and in experiment [2] was greater than 30 µM in each case. Take `CC1(C)O[C@@H]2C[C@H]3[C@@H]4C[C@H](F)C5=CC(=O)C=C[C@]5(C)[C@@]4(F)[C@@H](O)C[C@]3(C)[C@]2(C(=O)CO)O1` [FLUOCINOLONE ACETONIDE]: the concentration at half-maximal activity (AC50) in experiment [3] is greater than 30 µM.

Compound `COc1ccccc1OC1(C)OC(=O)c2ccccc2O1` (configuration not stated) [GUAIMESAL] returned an AC50 in experiment [4] greater than 30 µM.

`N=C(N)N/N=C/c1c(Cl)cccc1Cl` [GUANABENZ] showed an AC50 in experiment [3] greater than 30 µM.

For the compound `CCCCCCCN(CC)CCCC(O)c1ccc(NS(C)(=O)=O)cc1` (configuration not stated) [IBUTILIDE], the half-maximal activity concentration (AC50) in experiment [1] is greater than 30 µM; in experiment [4], greater than 30 µM; in experiment [2] it was 25 µM. Consider `CC(C)[C@@H]1CC[C@@H](C)C[C@H]1O` [LEVOMENTHOL], for which the AC50 in experiment [3] is greater than 30 µM.

As for `C[N+]1(C)CCCC(OC(=O)C(O)(c2ccccc2)c2ccccc2)C1` (configuration not stated) [MEPENZOLATE], the AC50 in experiment [3] is greater than 30 µM. Same read-out and setting: to `CN(C)c1ccc(O)c2c1C[C@H]1C[C@H]3[C@H](N(C)C)C(O)=C(C(N)=O)C(=O)[C@@]3(O)C(O)=C1C2=O` [MINOCYCLINE] belongs greater than 30 µM. Consider `CCNC(=O)/C=C(C)/C=C/C=C(C)/C=C/c1c(C)cc(OC)c(C)c1C` [MOTRETINIDE], for which the AC50 in experiment [3] was greater than 30 µM. Consider `CNC(=C[N+](=O)[O-])NCCSCc1csc(CN(C)C)n1` [NIZATIDINE], for which the concentration at half-maximal activity (AC50) in experiment [4], in experiment [5] and in experiment [6] was greater than 10 µM throughout. Turning to `CN1Cc2c(N)cccc2C(c2ccccc2)C1` (configuration not stated) [NOMIFENSINE], the results for the AC50 in experiment [1], in experiment [4] and in experiment [2] were 30 µM, greater than 30 µM and 15 µM, respectively. In experiment [3], `COc1ccc2[nH]c([S+]([O-])Cc3ncc(C)c(OC)c3C)nc2c1` (configuration not stated) [OMEPRAZOLE] registered an AC50 greater than 30 µM.

For the compound `CCCc1cc(=O)[nH]c(=S)[nH]1` [PROPYLTHIOURACIL], the half-maximal activity concentration (AC50) in experiment [5] and in experiment [6] was greater than 10 µM throughout. As to `Cn1cc(C(=O)[C@@H]2CCc3nc[nH]c3C2)c2ccccc21` [RAMOSETRON], the concentration at half-maximal activity (AC50) in experiment [1], in experiment [4] and in experiment [2] was greater than 30 µM throughout. In the case of `C[N+](C)(C)CCOC(=O)CCC(=O)OCC[N+](C)(C)C` [SUXAMETHONIUM], the AC50 in experiment [3] was greater than 30 µM.

In turn, `Cc1ccsc1C(=CCCN1CCC[C@@H](C(=O)O)C1)c1sccc1C` [TIAGABINE] returned an AC50 in experiment [3] greater than 30 µM. `Cc1ccc(C(=O)c2ccc(CC(=O)O)n2C)cc1` [TOLMETIN] showed an AC50 in experiment [3] greater than 30 µM. On the same count and under the same terms, then `Cc1ccccc1C(=O)Nc1ccc(C(=O)N2CCCC(O)c3cc(Cl)ccc32)c(C)c1` (configuration not stated) [TOLVAPTAN], with greater than 30 µM. Take `C[C@]12C=CC(=O)C=C1CC[C@H]1[C@@H]3C[C@@H](O)[C@](O)(C(=O)CO)[C@@]3(C)C[C@H](O)[C@@]12F` [TRIAMCINOLONE]: the concentration at half-maximal activity (AC50) in experiment [4] is 0.0091 µM; in experiment [3], greater than 30 µM. `CC(C)C[C@H](NC(=O)[C@@H](O)[C@H](N)Cc1ccccc1)C(=O)O` [UBENIMEX]: in experiment [4], the AC50 was 20 µM. As to `CCC1=C[C@@H]2CN(C1)Cc1c([nH]c3ccccc13)[C@@](C(=O)OC)(c1cc3c(cc1OC)N(C)[C@H]1[C@@](O)(C(=O)OC)[C@H](OC(C)=O)[C@]4(CC)C=CCN5CC[C@]31[C@@H]54)C2` [VINORELBINE], in experiment [3], the AC50 was greater than 30 µM. With `COc1cc(C(=O)NS(=O)(=O)c2ccccc2C)ccc1Cc1cn(C)c2ccc(NC(=O)OC3CCCC3)cc12` [ZAFIRLUKAST], the AC50 was 24.9 µM in experiment [4], greater than 10 µM in experiment [5] and greater than 10 µM in experiment [6].
